Like-named read-outs stand apart in the source and are kept apart here.
What was measured:
[1] = Kinetic solubility (turbidimetric method); format: physicochemical; conditions: 10 mM PBS pH 7.4, 2% DMSO, test range 3.125-200 μM, 2 h at 37° C.
Method: A turbidimetric method was used. First a series of DMSO compound stock solutions was prepared ([…]). An aliquot of 4 μL stock solution was added to 196 μL PBS buffer (pH 7.4). A series of concentrations were prepared (3.13-200 μM), including a blank on a microtiter plate. (2% DMSO-D6) The microtiter plate was shaken for 10 seconds and incubated for 2 hours at 37° C. When there was no turbidity measured at a given concentration the sample was assumed to be dissolved.

[2] = Microsomal (metabolic) stability, human liver microsomes; conditions: human liver microsomes, 0.5 mg protein/ml, 10 μM compound, 37° C.
Excerpt: By using the measured microsomal in vitro t1/2, a calculated value for the intrinsic clearance Clint can be determined. This value states the measure in which a drug that is not bound to plasma proteins is irreversibly removed from the body by the liver. This value is expressed in mL/min/kg which can be interpreted as the volume of blood in mL that is cleared of a drug per minute per kilogram of body weight. The CLint is less sensitive to used variables in ADME assays since the amount of microsomal protein and the volume of the incubation are all taken into account. (Sohlenius-Sternbeck et al., Xenobiotica, 2012, 42, 841-853)
Liver microsomes (20 mg protein/ml), NADPH regenerating system solutions A & B and 5 mM stock compound solution (100% DMSO) are prepared. The reaction mixture finally contains 713 μL purified water, 200 μL 0.5 M potassium phosphate pH 7.4, 50 μL NADPH regenerating system solution A (BD Biosciences Cat. No. 451220), 10 μL NADPH regenerating system solution B (BD Biosciences Cat. No. 451200) and 2 μL of the compound stock solution (10 μM final concentration). The reaction mixture is warmed to 37° C. for 5 minutes in a water bath and the reaction is initiated by addition of 25 μL of liver microsomes (0.5 mg protein/ml final concentration). At different time points (0 min-15 min-30 min-60 min-120 min-240 min-360 min-24 h), 20 μL is withdrawn and 80 μL cold acetonitrile is added on ice for 10 minutes. Then the mixtures are centrifuged at 13 000 rpm for 5 min at 4° C. The supernatant is further diluted in 90% water/MeCN (1/25) to fall within the range of the LC/MS/MS analysis. At each time point, the compound is analysed using LC/MS/MS with the same UPLC system as described above. A standard curve of six points was made to fit the measured concentrations. Verapamil was used as a positive control.
All obtained readouts were processed using Microsoft Excel. In order to determine the microsomal half-life t1/2 of the compounds, the rate constant k was determined by plotting the exponential decay graphs using GraFit. Microsomal t1/2 was determined using the following formula: […]

[3] = tested on: IMR-32 Neuroblastoma cells; assay: Erastin-induced ferroptosis in IMR-32 neuroblastoma cells (Sytox Green cell death readout); format: cell-based; conditions: IMR-32 cells, 10 μM erastin, compounds 1 nM to 1 μM, triplicate, read-out: IC50, antiferroptotic activity in response to erastin-induced ferroptosis
Method: In the present invention the potency of a compound inhibiting (or reducing) ferroptosis and/or oxytosis are determined in in vitro or in vivo assays. Typically in vitro assays are used to measure the potency of a candidate compound. Examples of suitable in vitro assays are cellular assays. One non-limiting example of an assay involves the use of the IMR-32 neuroblastoma cell line. The latter is stimulated to enter into ferroptosis upon stimulation with 10 μM erastin, a documented ferroptosis inducer (see for example Dixon et al (2012) Cell 149, 1060-1072 and ferroptosis inhibitors are evaluated for the prevention of erastin induced ferroptosis. Yet another assay is based the glutamate-induced cell death in the hippocampal cell line HT22 and ferroptosis/oxytosis inhibitors are evaluated for the prevention of cell death (see Henke N. et al (2013) Cell Death and Disease 4, e470). Still another assay is based on the sorafinib induced cell death (described to be iron dependent cell death) in hepatocellular carcinoma cells and ferroptosis inhibitors are evaluated for the prevention of cell death (see Louandre C. et al (2013) Int. J. Cancer 133, 1732). The calculated potency of a compound inhibiting ferroptosis and/or oxytosis is typically depicted as an IC50 value. Examples of suitable in vivo assays are typically pre-clinical disease models of for example mice for the diseases benefiting the application of ferroptosis and/or oxytosis inhibitors, as described herein. One non-limiting example of an in vivo assay is based on inducing liver damage in mice by administering the herbicide diquat dibromide monohydrate and ferroptosis inhibitors are evaluated based on reduced levels of liver transaminases in serum (see Ran Q et al (2004) J. Biol. Chem. 279, 53, 55137).
The IC50 values for the individual compounds of the invention were determined in the neuroblastoma, IMR-32 cell line. In brief, IMR-32 cells were subjected to 10 μM erastin, the latter compound is known to induce ferroptosis. A concentration gradient (ranging from 1 nM to 1 μM) of the compounds was applied to the cells. These experiments were performed in a 96-well format (in triplicate), and cell death was analyzed in a fluorescent plate reader by use of a fluorescent cell death dye (1.5 μM Sytox Green). The IC50 values depicted in Table 1 are the concentration values for the individual compounds which are able to overcome ferroptosis.

[4] = tested on: acute iron poisoning induced organ damage; assay: Acute iron poisoning (FeSO4) induced organ damage, plasma LDH and creatine kinase; format: in vivo
Method: Equimolar amounts of ferroptosis inhibitors (˜10 mg/kg) were injected iv 15 min before ip injection of FeSO4 (300 mg/kg). Plasma was collected 2 h after FeSO4-challenge and analyzed for the presence of lactate dehydrogenase (LDH) and creatine kinase. Fer-1 is ferrostatin, 3234 is compound 37,3206 is compound 38 and 3203 is compound 39 (see Table 1 for numbering and structure). […] Equimolar amounts of ferroptosis inhibitors (˜10 mg/kg) were injected iv 30 min after ip injection of FeSO4 (300 mg/kg). Plasma was collected 8 h after FeSO4-challenge and analyzed for the presence of lactate dehydrogenase (LDH) and creatine kinase.
We identified acute iron poisoning as a novel experimental model for in rhabdomyolysis-induced kidney failure.

| Compound | Solubility (kinetic) [1] [µM] | Microsomal stability (t1/2), Human [2] [min] | IC50 [3] [µM] | Protection against organ damage: plasma lactate dehydrogenase (LDH) and creatine kinase levels, prophylactic setting ([4]; ~10 mg/kg iv 15 min before FeSO4 300 mg/kg ip, plasma 2 h after challenge (FIG. 5A)) | Protection against organ damage: plasma lactate dehydrogenase (LDH) and creatine kinase levels, therapeutic setting ([4]; ~10 mg/kg iv 30 min after FeSO4 300 mg/kg ip, plasma 8 h after challenge (FIG. 5B)) | IC50 ([3]; Homo sapiens) [µM] |
| --- | --- | --- | --- | --- | --- | --- |
| CCOC(=O)c1ccc(NC2CCCCC2)c(N)c1 [Compound 1, ferrostatin-1] | >200 | 6.54 ± 0.18 | 0.033 | does not show any significant protection | only shows minor protection |  |
| CN(C)CCNS(=O)(=O)c1ccc(NC2CCCCC2)c(N)c1 [Compound 20, 3-amino-4-(cyclohexylamino)-N-(2-(dimethylamino)ethyl)benzenesulfonamide] | >200 |  |  |  |  | 0.16 |
| CN1CCN(CCNS(=O)(=O)c2ccc(NC3CCCCC3)c(N)c2)CC1 [Compound 24, 3-amino-4-(cyclohexylamino)-N-(2-(4-methylpiperazin-1-yl)ethyl)benzenesulfonamide] | >200 |  |  |  |  | 0.236 |
| Nc1cc(S(=O)(=O)NCCN2CCOCC2)ccc1NC1CCCCC1 [Compound 25, 3-amino-4-(cyclohexylamino)-N-(2-morpholinoethyl)benzenesulfonamide] | >200 |  |  |  |  | 0.448 |
| COCCNS(=O)(=O)c1ccc(NC2CCCCC2)c(N)c1 [Compound 26, 3-amino-4-(cyclohexylamino)-N-(2-methoxyethyl)benzenesulfonamide] | >200 |  |  |  |  | 0.492 |
| CNCCNS(=O)(=O)c1ccc(NC2CCCCC2)c(N)c1.Cl [Compound 27, 3-amino-4-(cyclohexylamino)-N-(2-(methylamino)ethyl)benzenesulfonamide Hydrochloride] | >200 |  |  |  |  | 0.214 |
| Cl.NCCNS(=O)(=O)c1ccc(NC2CCCCC2)c(N)c1 [Compound 28, 3-amino-N-(2-aminoethyl)-4-(cyclohexylamino)benzenesulfonamide Hydrochloride] | >200 |  |  |  |  | 0.306 |
| Nc1cc(S(=O)(=O)NCCN2CCNCC2)ccc1NC1CCCCC1 [Compound 29, 3-amino-4-(cyclohexylamino)-N-(2-(piperazin-1-yl)ethyl)benzenesulfonamide] | >200 |  |  |  |  | 0.296 |
| CN(C)CCNS(=O)(=O)c1ccc(NC2CCCCC2)c(NCc2ccccc2)c1 [Compound 30, 3-(benzylamino)-4-(cyclohexylamino)-N-(2-(dimethylamino)ethyl)benzenesulfonamide] | >200 |  |  |  |  | 0.554 |
| CN1CCN(CCNS(=O)(=O)c2ccc(NC3CCCCC3)c(NCc3ccccc3)c2)CC1 [Compound 34, 3-(benzylamino)-4-(cyclohexylamino)-N-(2-(4-methylpiperazin-1-yl)ethyl)benzenesulfonamide] | >200 |  |  |  |  | 1.07 |
| COCCNS(=O)(=O)c1ccc(NC2CCCCC2)c(NCc2ccccc2)c1 [Compound 36, 3-(benzylamino)-4-(cyclohexylamino)-N-(2-methoxyethyl)benzenesulfonamide] | 25 to 50 |  |  |  |  | 0.022 |
| CN(C)CCNS(=O)(=O)c1ccc(NC2CCCCC2)c(NCc2ccncc2)c1 [Compound 40, 4-(cyclohexylamino)-N-(2-(dimethylamino)ethyl)-3-((pyridin-4-ylmethyl)amino)benzenesulfonamide] | >200 |  |  |  |  | 1.56 |
| CN1CCN(CCNS(=O)(=O)c2ccc(NC3CCCCC3)c(NCc3ccncc3)c2)CC1 [Compound 44, 4-(cyclohexylamino)-N-(2-(4-methylpiperazin-1-yl)ethyl)-3-((pyridin-4-ylmethyl)amino)benzenesulfonamide] | >200 |  |  |  |  | 1.52 |
| O=S(=O)(NCCN1CCOCC1)c1ccc(NC2CCCCC2)c(NCc2ccncc2)c1 [Compound 45, 4-(cyclohexylamino)-N-(2-morpholinoethyl)-3-((pyridin-4-ylmethyl)amino)benzenesulfonamide] | >200 |  |  |  |  | 0.191 |
| COCCNS(=O)(=O)c1ccc(NC2CCCCC2)c(NCc2ccncc2)c1 [Compound 46, 4-(cyclohexylamino)-N-(2-methoxyethyl)-3-((pyridin-4-ylmethyl)amino)benzenesulfonamide] | >200 |  |  |  |  | 0.097 |
| CNCCNS(=O)(=O)c1ccc(NC2CCCCC2)c(NCc2ccncc2)c1.Cl [Compound 47, 4-(cyclohexylamino)-N-(2-(methylamino)ethyl)-3-((pyridin-4-ylmethyl)amino)benzenesulfonamide Hydrochloride] | >200 |  |  |  |  | 0.157 |
| Cl.NCCNS(=O)(=O)c1ccc(NC2CCCCC2)c(NCc2ccncc2)c1 [Compound 48, N-(2-aminoethyl)-4-(cyclohexylamino)-3-((pyridin-4-ylmethyl)amino)benzenesulfonamide Hydrochloride] | 100 to 200 |  |  |  |  | 0.112 |
| Cl.O=S(=O)(NCCN1CCNCC1)c1ccc(NC2CCCCC2)c(NCc2ccncc2)c1 [Compound 49, 4-(cyclohexylamino)-N-(2-(piperazin-1-yl)ethyl)-3-((pyridin-4-ylmethyl)amino)benzenesulfonamide Hydrochloride] | >200 |  |  |  |  | 0.442 |

Source: patent US11339124B2, “3-(benzylamino)-4-(cyclohexylamino)-n-(2-(piperazin-1-yl)ethyl)benzenesulfonamide derivatives and related ferrostatin-1 analogues as cell death inhibitors for treating e.g. stroke” (VIB VZW, priority 2018, dated 2022)
